Active and inactive are the calls of the source. No cut-off for these calls is given here.
Experiments:
[1] = tested on: Nucleic Acid; assay: Binding affinity to supercoiled Escherichia coli pUC19 DNA assessed as formation of nicked circular DNA at 1.10 mM at pH 6.0 for 24 hrs in presence of sodium azide by agarose gel electrophoresis; format: nucleic-acid assay
[2] = tested on: Nucleic Acid; assay: Binding affinity to Escherichia coli pUC19 DNA assessed as form 2 DNA level at 0.130 mM after 14 hrs by agarose gel electrophoresis; format: nucleic-acid assay
[3] = tested on: Nucleic Acid; assay: Binding affinity to Escherichia coli pUC19 DNA assessed as form 2 DNA level at 0.175 mM after 31.48 hrs by agarose gel electrophoresis; format: nucleic-acid assay
[4] = tested on: Nucleic Acid; assay: Binding affinity to Escherichia coli pUC19 DNA assessed as form 1 DNA level at 0.463 mM after 31.48 hrs by agarose gel electrophoresis; format: nucleic-acid assay
[5] = tested on: Nucleic Acid; assay: Binding affinity to Escherichia coli pUC19 DNA assessed as form 1 DNA level at 0.698 mM after 8.45 hrs by agarose gel electrophoresis; format: nucleic-acid assay
[6] = tested on: Nucleic Acid; assay: Binding affinity to Escherichia coli pUC19 DNA assessed as form 2 DNA level at 0.262 mM after 26.15 hrs by agarose gel electrophoresis; format: nucleic-acid assay
[7] = tested on: HL-60; assay: Growth inhibition of human HL60 cells at 10 uM after 72 hrs by MTT assay; format: functional; set-up: scale not given: the % may be the effect or the level left
[8] = tested on: Nucleic Acid; assay: Binding affinity to Escherichia coli pUC19 DNA assessed as form 1 DNA level at 0.262 mM after 24.08 hrs by agarose gel electrophoresis; format: nucleic-acid assay
[9] = tested on: Nucleic Acid; assay: Binding affinity to supercoiled Escherichia cloli pUC19 DNA assessed as formation of nicked circular DNA at 1.10 mM at pH 6.0 to 8.5 for 24 hrs by agarose gel electrophoresis; format: nucleic-acid assay; settings: Escherichia coli
[10] = tested on: Nucleic Acid; assay: Binding affinity to Escherichia coli pUC19 DNA assessed as form 2 DNA level at 0.320 mM after 29.33 hrs by agarose gel electrophoresis; format: nucleic-acid assay
[11] = tested on: Nucleic Acid; assay: Binding affinity to Escherichia coli pUC19 DNA assessed as form 1 DNA level at 0.130 mM after 14 hrs by agarose gel electrophoresis; format: nucleic-acid assay
[12] = tested on: Nucleic Acid; assay: Binding affinity to Escherichia coli pUC19 DNA assessed as form 1 DNA level at 0.262 mM by agarose gel electrophoresis; format: nucleic-acid assay
[13] = tested on: Nucleic Acid; assay: Binding affinity to Escherichia coli pUC19 DNA assessed as form 2 DNA level at 0.320 mM after 13.07 hrs by agarose gel electrophoresis; format: nucleic-acid assay
[14] = tested on: Nucleic Acid; assay: Binding affinity to Escherichia coli pUC19 DNA assessed as form 1 DNA level at 0.320 mM by agarose gel electrophoresis; format: nucleic-acid assay
[15] = tested on: Nucleic Acid; assay: Binding affinity to Escherichia coli pUC19 DNA assessed as form 2 DNA level at 0.349 mM after 23.02 hrs by agarose gel electrophoresis; format: nucleic-acid assay
[16] = tested on: Nucleic Acid; assay: Binding affinity to Escherichia coli pUC19 DNA assessed as form 2 DNA level at 0.349 mM after 26.15 hrs by agarose gel electrophoresis; format: nucleic-acid assay
[17] = tested on: Nucleic Acid; assay: Binding affinity to Escherichia coli pUC19 DNA assessed as form 2 DNA level at 0.463 mM after 29.33 hrs by agarose gel electrophoresis; format: nucleic-acid assay
[18] = tested on: Nucleic Acid; assay: Binding affinity to Escherichia coli pUC19 DNA assessed as form 2 DNA level at 0.262 mM after 23.02 hrs by agarose gel electrophoresis; format: nucleic-acid assay
[19] = tested on: Nucleic Acid; assay: Binding affinity to Escherichia coli pUC19 DNA assessed as form 2 DNA level at 0.698 mM after 12.13 hrs by agarose gel electrophoresis; format: nucleic-acid assay
[20] = tested on: Nucleic Acid; assay: Binding affinity to Escherichia coli pUC19 DNA assessed as form 2 DNA level at 0.698 mM after 23.80 hrs by agarose gel electrophoresis; format: nucleic-acid assay
[21] = tested on: Nucleic Acid; assay: Binding affinity to Escherichia coli pUC19 DNA assessed as form 2 DNA level at 0.698 mM after 6.42 hrs by agarose gel electrophoresis; format: nucleic-acid assay
[22] = tested on: Nucleic Acid; assay: Binding affinity to Escherichia coli pUC19 DNA assessed as form 2 DNA level at 0.349 mM after 28.18 hrs by agarose gel electrophoresis; format: nucleic-acid assay
[23] = tested on: Nucleic Acid; assay: Binding affinity to Escherichia coli pUC19 DNA assessed as form 1 DNA level at 0.175 mM by agarose gel electrophoresis; format: nucleic-acid assay
[24] = tested on: Nucleic Acid; assay: Binding affinity to Escherichia coli pUC19 DNA assessed as form 2 DNA level at 0.175 mM after 9.07 hrs by agarose gel electrophoresis; format: nucleic-acid assay
[25] = tested on: Nucleic Acid; assay: Binding affinity to Escherichia coli pUC19 DNA assessed as form 1 DNA level at 0.130 mM after 11.30 hrs by agarose gel electrophoresis; format: nucleic-acid assay
[26] = tested on: Nucleic Acid; assay: Binding affinity to Escherichia coli pUC19 DNA assessed as form 2 DNA level at 0.320 mM after 23.12 hrs by agarose gel electrophoresis; format: nucleic-acid assay
[27] = tested on: Nucleic Acid; assay: Binding affinity to Escherichia coli pUC19 DNA assessed as form 2 DNA level at 0.349 mM by agarose gel electrophoresis; format: nucleic-acid assay
[28] = tested on: Nucleic Acid; assay: Binding affinity to Escherichia coli pUC19 DNA assessed as form 1 DNA level at 0.262 mM after 23.02 hrs by agarose gel electrophoresis; format: nucleic-acid assay
[29] = tested on: Nucleic Acid; assay: Binding affinity to Escherichia coli pUC19 DNA assessed as form 1 DNA level at 0.349 mM after 23.02 hrs by agarose gel electrophoresis; format: nucleic-acid assay
[30] = tested on: Nucleic Acid; assay: Binding affinity to Escherichia coli pUC19 DNA assessed as form 1 DNA level at 0.175 mM after 9.07 hrs by agarose gel electrophoresis; format: nucleic-acid assay
[31] = tested on: Nucleic Acid; assay: Binding affinity to supercoiled Escherichia coli pUC19 DNA assessed as formation of nicked circular DNA at 1.10 mM at pH 6.0 for 24 hrs in presence of potassium iodide by agarose gel electrophoresis; format: nucleic-acid assay
[32] = tested on: Nucleic Acid; assay: Binding affinity to Escherichia coli pUC19 DNA assessed as form 2 DNA level at 0.463 mM by agarose gel electrophoresis; format: nucleic-acid assay
[33] = tested on: Nucleic Acid; assay: Binding affinity to Escherichia coli pUC19 DNA assessed as form 1 DNA level at 0.463 mM after 27.33 hrs by agarose gel electrophoresis; format: nucleic-acid assay
[34] = tested on: Nucleic Acid; assay: Binding affinity to Escherichia coli pUC19 DNA assessed as form 1 DNA level at 0.463 mM after 29.33 hrs by agarose gel electrophoresis; format: nucleic-acid assay
[35] = tested on: Nucleic Acid; assay: Binding affinity to Escherichia coli pUC19 DNA assessed as form 1 DNA level at 0.463 mM after 25.35 hrs by agarose gel electrophoresis; format: nucleic-acid assay
[36] = tested on: Nucleic Acid; assay: Binding affinity to Escherichia coli pUC19 DNA assessed as form 2 DNA level at 0.130 mM by agarose gel electrophoresis; format: nucleic-acid assay
[37] = tested on: Nucleic Acid; assay: Binding affinity to Escherichia coli pUC19 DNA assessed as form 1 DNA level at 0.320 mM after 25.35 hrs by agarose gel electrophoresis; format: nucleic-acid assay
[38] = tested on: Nucleic Acid; assay: Binding affinity to Escherichia coli pUC19 DNA assessed as form 2 DNA level at 0.349 mM after 5.40 hrs by agarose gel electrophoresis; format: nucleic-acid assay
[39] = tested on: Nucleic Acid; assay: Binding affinity to Escherichia coli pUC19 DNA assessed as form 2 DNA level at 0.320 mM after 25.35 hrs by agarose gel electrophoresis; format: nucleic-acid assay
[40] = tested on: Nucleic Acid; assay: Binding affinity to Escherichia coli pUC19 DNA assessed as form 2 DNA level at 0.130 mM after 5.42 hrs by agarose gel electrophoresis; format: nucleic-acid assay

## Cl.Cl.NNC1=NCC(O)CN1 (stereo not given)
[1]
  Activity: inactive
[2]
  Activity: 24.4%
[3]
  Activity: 26%
[4]
  Activity: 51.1%
[5]
  Activity: 84.8%
[6]
  Activity: 13.7%
[7]
  Activity: 2%
[8]
  Activity: 89.5%
[9]
  Activity: Active
[10]
  Activity: 65.2%
[11]
  Activity: 75.5%
[12]
  Activity: 97.2%
[13]
  Activity: 87.8%
[14]
  Activity: 98.2%
[15]
  Activity: 27.7%
[16]
  Activity: 31.5%
[17]
  Activity: 42.2%
[18]
  Activity: 9.9%
[19]
  Activity: 23%
[20]
  Activity: 45%
[21]
  Activity: 13.4%
[22]
  Activity: 34.4%
[23]
  Activity: 97.1%
[24]
  Activity: 6.09%
[25]
  Activity: 78.2%
[26]
  Activity: 73.4%
[27]
  Activity: 2.46%
[28]
  Activity: 90.1%
[29]
  Activity: 72.3%
[30]
  Activity: 93.9%
[31]
  Activity: inactive
[32]
  Activity: 3.75%
[33]
  Activity: 59.4%
[34]
  Activity: 57.8%
[35]
  Activity: 60.2%
[36]
  Activity: 11.4%
[37]
  Activity: 64%
[38]
  Activity: 3.73%
[39]
  Activity: 69.8%
[40]
  Activity: 14.9%
